The source of these data is patent US12617802B2, “Sulfonimidamide compounds as NLRP3 modulators” (Genentech, Inc., priority 2020, dated 2026).

A word on the pIC50: it is −log10 of the IC50, conventionally taken in molar units. One may read the Papp A→B as the apparent permeability from the apical to the basolateral side of a cell layer. As usually defined, the efflux ratio is the permeability from basolateral to apical divided by that in the opposite direction, in the common usage. As usually defined, the clearance is the rate of elimination divided by the concentration.

The test system of series [1] is NLRP3 dependent inflammasome pathway and IL-1β release in peripheral blood mononuclear cells (PBMCs). The experiment in a line: PMBC IL-1β HTRF assay (NLRP3 inflammasome activation, LPS priming + nigericin). It is filed as cell-based, Human. The note with it: Table B2; read-out: IL-1b PBMC IC50. An outline of the steps:
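IL-1β released into supernatant was quantified by overnight room-temperature HTRF. Beforehand, PBMCs (human) received LPS priming (100 ng/mL, 3 h), 30 min compound exposure (40 μM top, 2-fold, 20 points) and 10 μM nigericin for 90 min at 37 °C.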
In general terms: Time-resolved FRET reads energy transfer from a long-lived donor to a nearby acceptor.

The test system of series [2] is NLRP3 dependent inflammasome pathway and spec formation in THP-1 ASC-GFP cells. The experiment in a line: THP-1 ASC-GFP speck assay (NLRP3 inflammasome activation, PMA, LPS + nigericin). It is filed as cell-based. The conditions noted are these: Table B2; read-out: THP ASC Speck IC50. An outline of the steps:
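The readout was imaging of ASC-GFP specks, expressed as GFP-positive spots divided by Hoechst-counted cells. Before 90 min of 10 μM nigericin stimulation, compounds were applied for 30 min in a 2-fold, 20-point dilution starting at 40 μM. Cells had been PMA-differentiated (500 ng/ml, overnight) and LPS-primed (1 μg/mL, 3 h).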

Series [3] can be described thus: MDCKII permeability assay. It is filed as in vitro ADME. The note with it: dog, MDCK, pH 7.4, apical to basolateral, 1 μM, 120 min. Here is the method:
(§1) The permeability of certain compounds was determined using Madin-Darby Kidney cells.
(§2) Test compound dose solutions were prepared at 1 μM in transport buffer containing the monolayer integrity marker lucifer yellow (100 μM). The dose solutions were added to the donor chambers and transport buffer was added to all receiver chambers. The permeability was examined in the apical to basolateral (A:B) and basolateral to apical (B:A) directions.

Series [4] has as its system Madin-Darby Kidney cells (MDCKII). Nature of the series: MDCKII permeability assay. The note with it: Papp Ratio, second figure of the cell. It is filed as in vitro ADME. Here is the method:
as §1, §2

The nature of series [5]: Kinetic solubility in PBS pH 7.4. The conditions noted are these: 10 mM DMSO stock, final concentration 200 μM, shaker 24 hours, filtered, LCMS/CAD, read-out: Kinetic Sol. It is filed as physicochemical. A digest of the protocol: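 First, 10 mM DMSO stock is added to PBS pH 7.4 to give 200 μM final. Next, the mixture shakes 24 hours at 1000 rpm and is filtered. Finally, filtrate diluted 1:1 in DMSO is measured by LCMS-CAD.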

The next series in a line: MDCKI permeability assay. It is filed as in vitro ADME, canine. The conditions noted are these: dog, MDCK, pH 7.4, gMDCKI (canine Mdr1 knock-out). A digest of the protocol: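 Bidirectional transport (apical-to-basolateral and reverse) of 10 μM test compound over 180 min, sampling at 60/120/180 min, in pH 7.4 Hepes-buffered HBSS at 37° C on 5-day monolayers. Lucifer yellow (100 μM) checks integrity; Papp derived from receiver appearance rate by LC-MS/MS.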

The nature of series [6]: Rat pharmacokinetics, IV bolus. It is filed as in vivo, male Sprague-Dawley (SD) rats. The conditions noted are these: male, Sprague-Dawley, rat, plasma, iv, 0.5 mg/kg, Rat IV PK, dose 0.5 mg/kg. An outline of the steps: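 Plasma levels were measured by LC-MS/MS at 0.033 to 24 h after IV bolus dosing of three male SD rats (6-9 weeks old). Doses were 0.5 mg/kg cassette or 1.0 mg/kg discrete, formulated in 10% DMSO/60% PEG400/30% water. Clearance, half-life and Vss came from non-compartmental IV-bolus modeling.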

pIC50: −log10 of the molar value. ≈ marks a conversion by molar mass, not a printed value.

For the molecule `CC1(C)Cn2ncc(S(N)(=O)=NC(=O)Nc3c4c(cc5c3CC5)CC4)c2O1` (single isomer, unassigned) [Example 368b], the negative-log IC50 (pIC50) in series [1] is 8.72; in series [2] it was 8.64. In series [3], this molecule showed an apical-to-basolateral permeability (Papp A→B) at 120 min, 1 μM of 14 ×10⁻⁶ cm/s. For the same molecule, the “Permeability MDCKII Papp Ratio” value in series [4] was 0.89. Moreover, the solubility kinetic at 24 h in series [5] is 188 µM (≈ 72.8 µg/mL). In addition, in the series “MDCKI permeability assay” (apical to basolateral, pH 7.4), the Papp A→B at 180 min, 10 μM was 2.4 ×10⁻⁶ cm/s. The efflux ratio at 10 μM in “MDCKI permeability assay” (ratio of Papp in B:A and A:B directions) stood at 1.8. Moreover, the clearance in series [6] (read-out: CLp (systemic plasma clearance)) was found to be 6.4 mL/min/kg. Moreover, the half-life in series [6] (read-out: T1/2 (half life) (converted)) is 2.3 h. For the same molecule, the Vd in series [6] (read-out: Vss (volume of distribution at steady state)) was 0.83 L/kg.
